From patent publication US20030180893A1, “Biotransformation of biologically active compounds made of various classes of chemical substance by means of laccase and manganese peroxidase enzymes” (priority 2000, published 2003) come the findings set out here.

Structures are written as SMILES. Where only a bound is given, the exact number is not on record here.

The test system of assay [1] is multiresistant S. aureus reference strain “Norddeutscher Stamm”. Briefly: Agar diffusion test according to Burkhardt against multiresistant S. aureus “Norddeutscher Stamm”. As to conditions: for Size of inhibition halo: starting materials, S. aureus “Nord. Stamm”; for Inhibition halo: S. aureus “Norddeutscher Stamm”. It counts as cell-based. As for the experimental part:
(§1) Methods: An agar diffusion test according to Burkhardt was performed (Burkhardt, F. (Ed.): Mikrobiologische Diagnostik, Georg-Thieme-Verlag Stuttgart, N.Y., 1992, p. 724). The test substances are applied to Sensi-Disc test plates (Becton Dickinson Microbiology Systems, Cockeysville, USA) in graduated concentrations. For testing, Mueller-Hinton II agar was employed in Stacker Petri dishes (Becton Dickinson Microbiology Systems, Cockeysville, USA). S. aureus strain ATCC 6538 was selected as a test strain. The seeding rate of this test strain was selected in such a way that densely arranged, nut non-confluent individual colonies developed after from 16 to 20 h of incubation. After drying the inoculated nutrient substrates, a maximum of 6 test plates is placed onto the agar surface with slight pressing. After 18+2 h of incubation at 36° C., the inhibition halos are measured. For internal quality control, the method was checked with S. aureus ATCC 25923.
Methods: The examination was effected by an agar diffusion test according to the method described in Example 13. As a test germ, the multiresistant S. aureus reference strain “Norddeutscher Stamm” (Smith Kline Beecham) was employed.
On the technique in general: A growth-free zone around the sample is the usual read-out of agar diffusion tests.

Assay [2] relates to multiresistant coagulase-negative S. epidermidis strain 99847. Briefly: Agar diffusion test according to Burkhardt against multiresistant S. epidermidis. The assay is classed as cell-based. As for the experimental part:
as §1
Methods: The examination was effected by an agar diffusion test according to the method described in Example 13. As a test germ, the multiresistant coagulase-negative S. epidermidis strain 99847 isolated from patient material was employed.

For assay [3], the system named is S. aureus strain ATCC 6538. Briefly: Agar diffusion test according to Burkhardt against S. aureus ATCC 6538. The assay is classed as cell-based. The method, then:
as §1

Assay [4] is described as follows: Antimicrobial activity in the preparation examples. As to conditions: result line of the preparation example; no test germ named.

On to `O=C(NCCO)c1cc(O)ccc1O` [2,5-Dihydroxy-N-(2-hydroxyethyl)benzamide, reference compound], for which the “Size of inhibition halo” value in assay [1] (0.05 mg/disc) is 14 mm; in assay [1] (0.25 mg/disc), 22 mm; in assay [2] (starting materials, 0.25 mg/disc), 22 mm.
On to `CC1(C)SC2C(Nc3cc(O)c(C(=O)NCCO)cc3O)C(=O)N2C1C(=O)O` (stereo not shown) [Example 1], for which the Inhibition halo in assay [3] (10 μg per test plate) is recorded as 12 mm; in assay [3] (50 μg per test plate), 18 mm; in assay [3] (125 μg per test plate) it was 22 mm; in assay [3] (250 μg per test plate), 24 mm; in assay [1] (50 μg) it was 16 mm; in assay [1] (125 μg), 18 mm. For the same compound, in assay [1] (250 μg), the Inhibition halo was determined as 20 mm. In addition, in assay [4], the “Antimicrobial activity of the coupling product (in words)” value is “antimicrobially active”.
As for `CC1=C(C(=O)O)N2C(=O)C(Nc3cc(O)c(C(=O)NCCO)cc3O)C2SC1` (stereo not shown) [Example 3], the Inhibition halo in assay [3] (50 μg per test plate) is 18 mm; in assay [3] (125 μg per test plate), 22 mm; in assay [3] (250 μg per test plate) it was 24 mm; in assay [1] (50 μg) it was 20 mm; in assay [1] (125 μg), 22 mm; in assay [1] (250 μg), 24 mm. For the same compound, the Inhibition halo in assay [2] (125 μg) came to 24 mm; in assay [2] (250 μg), 20 mm. Also, in assay [4], the “Antimicrobial activity of the coupling product (in words)” value is listed as “antimicrobially active”.
Take `CC1(C)SC2C(NC(=O)C(Nc3c(O)ccc(O)c3C(=O)NCCO)c3ccc(O)cc3)C(=O)N2C1C(=O)O` (stereo not shown) [Example 4]: the Inhibition halo in assay [3] (10 μg per test plate) is greater than 30 mm; in assay [3] (50 μg per test plate), greater than 30 mm; in assay [3] (125 μg per test plate), greater than 30 mm; in assay [3] (250 μg per test plate), greater than 30 mm; in assay [1] (10 μg), 10 mm; in assay [1] (50 μg), 18 mm. Further, the Inhibition halo in assay [1] (125 μg) amounted to 22 mm; in assay [1] (250 μg), 24 mm; in assay [2] (50 μg) it was 18 mm; in assay [2] (125 μg), 28 mm; in assay [2] (250 μg), 30 mm. For the same compound, the “Antimicrobial activity (in words)” value in assay [3] (summary of Table 1) was “highest antimicrobial activity”. Besides, the “Antimicrobial activity of the coupling product (in words)” value in assay [4] was “antimicrobially active”.
Turning to `CC1(C)SC2C(NC(=O)C(Nc3cc(O)c(C(=O)NCCO)cc3O)c3ccccc3)C(=O)N2C1C(=O)O` (stereo not shown) [Example 5], in assay [4], the “Antimicrobial activity of the coupling product (in words)” value was “antimicrobially active”.
